# Source: PMC4066754 (2014)
# Experiments:
# [1] = system: hairpin 2a (DNA, hairpin, hexaethylene glycol (HEG) loop linker between 4 and 5) ATGCGCA; test: 1H NMR titration; settings: 400 mM NaCl, 80 mM MgCl2; 200 mM phosphate in D2O, pH 8.9, 20°C, 0.5 mM hairpin
# [2] = system: hairpin 3a (DNA, hairpin, hexaethylene glycol (HEG) loop linker between 6 and 7) CTATGCGCA; test: 1H NMR titration; settings: 400 mM NaCl, 80 mM MgCl2; 200 mM phosphate in D2O, pH 8.9, 20°C, 0.5 mM hairpin
# [3] = system: hairpin 4a (DNA, hairpin, hexaethylene glycol (HEG) loop linker between 4 and 5) ACAGCTG; test: 1H NMR titration; settings: 400 mM NaCl, 80 mM MgCl2; 200 mM phosphate in D2O, pH 8.9, 20°C, 0.5 mM hairpin
# [4] = system: template 8tat:primer + downstream-binding oligonucleotide (DNA, duplex, 3'-amino-2',3'-dideoxynucleoside at primer 3' end) CTGGATTTCCTCAGTATCGTGCG/CGCACGA/ACTGAGGAAATCCA; test: inhibition of enzyme-free primer extension (MALDI-ToF kinetics); settings: 400 mM NaCl, 80 mM MgCl2; 200 mM HEPES, pH 8.9, 20°C; competes with 7.2 mM TMP-OAt; calculated from Kinh
# [5] = system: template 8gag:primer + downstream-binding oligonucleotide (DNA, duplex, 3'-amino-2',3'-dideoxynucleoside at primer 3' end) CTGGATTTCCTCAGGAGCGTGCG/CGCACGC/CCTGAGGAAATCCA; test: as above; settings: 400 mM NaCl, 80 mM MgCl2; 200 mM HEPES, pH 8.9, 20°C; competes with 7.2 mM TMP-OAt; calculated from Kinh
# [6] = system: template 8cac:primer + downstream-binding oligonucleotide (DNA, duplex, 3'-amino-2',3'-dideoxynucleoside at primer 3' end) CTGGATTTCCTCAGCACCGTGCG/CGCACGG/GCTGAGGAAATCCA; test: as above; settings: 400 mM NaCl, 80 mM MgCl2; 200 mM HEPES, pH 8.9, 20°C; competes with 7.2 mM TMP-OAt; calculated from Kinh
# [7] = system: template 8aaa:primer + downstream-binding oligonucleotide (DNA, duplex, 3'-amino-2',3'-dideoxynucleoside at primer 3' end) CTGGATTTCCTCAGAAACGTGCG/CGCACGT/TCTGAGGAAATCCA; test: as above; settings: 400 mM NaCl, 80 mM MgCl2; 200 mM HEPES, pH 8.9, 20°C; competes with 7.2 mM TMP-OAt; calculated from Kinh
# [8] = system: template 8tat:primer, no downstream-binding oligonucleotide (DNA, duplex, 3'-amino-2',3'-dideoxynucleoside at primer 3' end) CTGGATTTCCTCAGTATCGTGCG/CGCACGA; test: as above; settings: 400 mM NaCl, 80 mM MgCl2; 200 mM HEPES, pH 8.9, 20°C; competes with 7.2 mM TMP-OAt; calculated from Kinh
# [9] = system: template 8cac:primer, no downstream-binding oligonucleotide (DNA, duplex, 3'-amino-2',3'-dideoxynucleoside at primer 3' end) CTGGATTTCCTCAGCACCGTGCG/CGCACGG; test: as above; settings: 400 mM NaCl, 80 mM MgCl2; 200 mM HEPES, pH 8.9, 10°C; competes with 7.2 mM TMP-OAt; calculated from Kinh
# [10] = system: hairpin 4t (DNA, hairpin, hexaethylene glycol (HEG) loop linker between 4 and 5) TCAGCTG; test: 1H NMR titration; settings: 400 mM NaCl, 80 mM MgCl2, 200 mM phosphate in D2O, pH 8.9, 20°C, 0.5 mM hairpin
# [11] = system: hairpin 2g (DNA, hairpin, hexaethylene glycol (HEG) loop linker between 4 and 5) GTGCGCA; test: 1H NMR titration; settings: 400 mM NaCl, 80 mM MgCl2; 200 mM phosphate in D2O, pH 8.9, 20°C, 0.5 mM hairpin
# [12] = system: template 8tgt:primer + downstream-binding oligonucleotide (DNA, duplex, 3'-amino-2',3'-dideoxynucleoside at primer 3' end) CTGGATTTCCTCAGTGTCGTGCG/CGCACGA/ACTGAGGAAATCCA; test: inhibition of enzyme-free primer extension (MALDI-ToF kinetics); settings: 400 mM NaCl, 80 mM MgCl2; 200 mM HEPES, pH 8.9, 20°C; competes with 3.6 mM dCMP-OAt; calculated from Kinh
# [13] = system: template 8ggg:primer + downstream-binding oligonucleotide (DNA, duplex, 3'-amino-2',3'-dideoxynucleoside at primer 3' end) CTGGATTTCCTCAGGGGCGTGCG/CGCACGC/CCTGAGGAAATCCA; test: as above; settings: 400 mM NaCl, 80 mM MgCl2; 200 mM HEPES, pH 8.9, 20°C; competes with 3.6 mM dCMP-OAt; calculated from Kinh
# [14] = system: template 8cgc:primer + downstream-binding oligonucleotide (DNA, duplex, 3'-amino-2',3'-dideoxynucleoside at primer 3' end) CTGGATTTCCTCAGCGCCGTGCG/CGCACGG/GCTGAGGAAATCCA; test: as above; settings: 400 mM NaCl, 80 mM MgCl2; 200 mM HEPES, pH 8.9, 20°C; competes with 3.6 mM dCMP-OAt; calculated from Kinh
# [15] = system: template 8aga:primer + downstream-binding oligonucleotide (DNA, duplex, 3'-amino-2',3'-dideoxynucleoside at primer 3' end) CTGGATTTCCTCAGAGACGTGCG/CGCACGT/TCTGAGGAAATCCA; test: as above; settings: 400 mM NaCl, 80 mM MgCl2; 200 mM HEPES, pH 8.9, 20°C; competes with 3.6 mM dCMP-OAt; calculated from Kinh
# [16] = system: template 8tgt:primer, no downstream-binding oligonucleotide (DNA, duplex, 3'-amino-2',3'-dideoxynucleoside at primer 3' end) CTGGATTTCCTCAGTGTCGTGCG/CGCACGA; test: as above; settings: 400 mM NaCl, 80 mM MgCl2; 200 mM HEPES, pH 8.9, 20°C; competes with 3.6 mM dCMP-OAt; calculated from Kinh
# [17] = system: template 8cgc:primer, no downstream-binding oligonucleotide (DNA, duplex, 3'-amino-2',3'-dideoxynucleoside at primer 3' end) CTGGATTTCCTCAGCGCCGTGCG/CGCACGG; test: as above; settings: 400 mM NaCl, 80 mM MgCl2; 200 mM HEPES, pH 8.9, 10°C; competes with 3.6 mM dCMP-OAt; calculated from Kinh
# [18] = system: RNA hairpin 6c (RNA, hairpin, hexaethylene glycol (HEG) loop linker between 4 and 5) CCAGCUG; test: 1H NMR titration; settings: 400 mM NaCl, 80 mM MgCl2; 200 mM phosphate in D2O, pH 7, 20°C, 2 mM hairpin
# [19] = system: hairpin 2c (DNA, hairpin, hexaethylene glycol (HEG) loop linker between 4 and 5) CTGCGCA; test: 1H NMR titration; settings: 400 mM NaCl, 80 mM MgCl2; 200 mM phosphate in D2O, pH 8.9, 20°C, 0.5 mM hairpin
# [20] = system: hairpin 3c (DNA, hairpin, hexaethylene glycol (HEG) loop linker between 6 and 7) CTCTGCGCA; test: 1H NMR titration; settings: 400 mM NaCl, 80 mM MgCl2; 200 mM phosphate in D2O, pH 8.9, 20°C, 0.5 mM hairpin
# [21] = system: template 8tct:primer + downstream-binding oligonucleotide (DNA, duplex, 3'-amino-2',3'-dideoxynucleoside at primer 3' end) CTGGATTTCCTCAGTCTCGTGCG/CGCACGA/ACTGAGGAAATCCA; test: inhibition of enzyme-free primer extension (MALDI-ToF kinetics); settings: 400 mM NaCl, 80 mM MgCl2; 200 mM HEPES, pH 8.9, 20°C; competes with 3.6 mM dGMP-OAt; calculated from Kinh
# [22] = system: template 8gcg:primer + downstream-binding oligonucleotide (DNA, duplex, 3'-amino-2',3'-dideoxynucleoside at primer 3' end) CTGGATTTCCTCAGGCGCGTGCG/CGCACGC/CCTGAGGAAATCCA; test: as above; settings: 400 mM NaCl, 80 mM MgCl2; 200 mM HEPES, pH 8.9, 20°C; competes with 3.6 mM dGMP-OAt; calculated from Kinh
# [23] = system: template 8ccc:primer + downstream-binding oligonucleotide (DNA, duplex, 3'-amino-2',3'-dideoxynucleoside at primer 3' end) CTGGATTTCCTCAGCCCCGTGCG/CGCACGG/GCTGAGGAAATCCA; test: as above; settings: 400 mM NaCl, 80 mM MgCl2; 200 mM HEPES, pH 8.9, 20°C; competes with 3.6 mM dGMP-OAt; calculated from Kinh
# [24] = system: template 8aca:primer + downstream-binding oligonucleotide (DNA, duplex, 3'-amino-2',3'-dideoxynucleoside at primer 3' end) CTGGATTTCCTCAGACACGTGCG/CGCACGT/TCTGAGGAAATCCA; test: as above; settings: 400 mM NaCl, 80 mM MgCl2; 200 mM HEPES, pH 8.9, 20°C; competes with 3.6 mM dGMP-OAt; calculated from Kinh
# [25] = system: template 8tct:primer, no downstream-binding oligonucleotide (DNA, duplex, 3'-amino-2',3'-dideoxynucleoside at primer 3' end) CTGGATTTCCTCAGTCTCGTGCG/CGCACGA; test: as above; settings: 400 mM NaCl, 80 mM MgCl2; 200 mM HEPES, pH 8.9, 20°C; competes with 3.6 mM dGMP-OAt; calculated from Kinh
# [26] = system: template 8ccc:primer, no downstream-binding oligonucleotide (DNA, duplex, 3'-amino-2',3'-dideoxynucleoside at primer 3' end) CTGGATTTCCTCAGCCCCGTGCG/CGCACGG; test: as above; settings: 400 mM NaCl, 80 mM MgCl2; 200 mM HEPES, pH 8.9, 10°C; competes with 3.6 mM dGMP-OAt; calculated from Kinh
# [27] = system: template 8ttt:primer + downstream-binding oligonucleotide (DNA, duplex, 3'-amino-2',3'-dideoxynucleoside at primer 3' end) CTGGATTTCCTCAGTTTCGTGCG/CGCACGA/ACTGAGGAAATCCA; test: as above; settings: 400 mM NaCl, 80 mM MgCl2; 200 mM HEPES, pH 8.9, 20°C; competes with 3.6 mM dAMP-OAt; calculated from Kinh
# [28] = system: template 8gtg:primer + downstream-binding oligonucleotide (DNA, duplex, 3'-amino-2',3'-dideoxynucleoside at primer 3' end) CTGGATTTCCTCAGGTGCGTGCG/CGCACGC/CCTGAGGAAATCCA; test: as above; settings: 400 mM NaCl, 80 mM MgCl2; 200 mM HEPES, pH 8.9, 20°C; competes with 3.6 mM dAMP-OAt; calculated from Kinh
# [29] = system: template 8ctc:primer + downstream-binding oligonucleotide (DNA, duplex, 3'-amino-2',3'-dideoxynucleoside at primer 3' end) CTGGATTTCCTCAGCTCCGTGCG/CGCACGG/GCTGAGGAAATCCA; test: as above; settings: 400 mM NaCl, 80 mM MgCl2; 200 mM HEPES, pH 8.9, 20°C; competes with 3.6 mM dAMP-OAt; calculated from Kinh
# [30] = system: template 8ata:primer + downstream-binding oligonucleotide (DNA, duplex, 3'-amino-2',3'-dideoxynucleoside at primer 3' end) CTGGATTTCCTCAGATACGTGCG/CGCACGT/TCTGAGGAAATCCA; test: as above; settings: 400 mM NaCl, 80 mM MgCl2; 200 mM HEPES, pH 8.9, 20°C; competes with 3.6 mM dAMP-OAt; calculated from Kinh
# [31] = system: template 8ttt:primer, no downstream-binding oligonucleotide (DNA, duplex, 3'-amino-2',3'-dideoxynucleoside at primer 3' end) CTGGATTTCCTCAGTTTCGTGCG/CGCACGA; test: as above; settings: 400 mM NaCl, 80 mM MgCl2; 200 mM HEPES, pH 8.9, 20°C; competes with 3.6 mM dAMP-OAt; calculated from Kinh
# [32] = system: template 8ctc:primer, no downstream-binding oligonucleotide (DNA, duplex, 3'-amino-2',3'-dideoxynucleoside at primer 3' end) CTGGATTTCCTCAGCTCCGTGCG/CGCACGG; test: as above; settings: 400 mM NaCl, 80 mM MgCl2; 200 mM HEPES, pH 8.9, 10°C; competes with 3.6 mM dAMP-OAt; calculated from Kinh
structure (smiles),measurement,setting,value
Cc1cn([C@H]2C[C@H](O)[C@@H](COP(=O)(O)O)O2)c(=O)[nH]c1=O,Kd,[1],261 ± 47 mM
same,Kd,[2],284 ± 44 mM
same,Kd,[3],241 ± 12 mM
same,Kd,[4],59 mM
same,Kd,[5],83 mM
same,Kd,[6],113 mM
same,Kd,[7],77 mM
same,Kd,[8],200 mM
same,Kd,[9],144 mM
Nc1ccn([C@H]2C[C@H](O)[C@@H](COP(=O)(O)O)O2)c(=O)n1,Kd,[10]; no saturation up to 1 M dCMP,> ≥2000 mM
same,Kd,[11],40 mM
same,Kd,[12],5 mM
same,Kd,[13],18 mM
same,Kd,[14],6 mM
same,Kd,[15],15 mM
same,Kd,[16],19 mM
same,Kd,[17],30 mM
Nc1nc2c(ncn2[C@@H]2O[C@H](COP(=O)(O)O)[C@@H](O)[C@H]2O)c(=O)[nH]1,Kd,[18],14 mM
Nc1nc2c(ncn2[C@H]2C[C@H](O)[C@@H](COP(=O)(O)O)O2)c(=O)[nH]1,Kd,[19],9.9 ± 0.9 mM
same,Kd,[20],16 mM
same,Kd,[10],100 mM
same,Kd,[21],2 mM
same,Kd,[22],10 mM
same,Kd,[23],7 mM
same,Kd,[24],5 mM
same,Kd,[25],15 mM
same,Kd,[26],5 mM
Nc1ncnc2c1ncn2[C@H]1C[C@H](O)[C@@H](COP(=O)(O)O)O1,Kd,[10],38 mM
same,Kd,[27],5 mM
same,Kd,[28],5 mM
same,Kd,[29],7 mM
same,Kd,[30],5 mM
same,Kd,[31],17 mM
same,Kd,[32],7 mM
